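48-hour exposure; five concentrations; linearly interpolated endpoints. Here, GI50 denotes the concentration required for 50% inhibition of growth. The concentration for full growth arrest is given as TGI.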
What was measured:
Assay in all cases: growth of human tumour cells (NCI), 48 h
SNB-75 CNS = tested on: SNB-75 CNS
SF-539 CNS = tested on: SF-539 CNS
SN12C renal = tested on: SN12C renal
MALME-3M melanoma = tested on: MALME-3M melanoma
HT29 colon = tested on: HT29 colon
A549 NSCLC = tested on: A549 NSCLC
SF-295 CNS = tested on: SF-295 CNS
SK-MEL-5 melanoma = tested on: SK-MEL-5 melanoma
LOX IMVI melanoma = tested on: LOX IMVI melanoma
A498 renal = tested on: A498 renal

| Compound | TGI (SNB-75 CNS) [µM] | TGI (SF-539 CNS) [µM] | TGI (SN12C renal) [µM] | TGI (MALME-3M melanoma) [µM] | TGI (HT29 colon) [µM] | TGI (A549 NSCLC) [µM] | TGI (SF-295 CNS) [µM] | TGI (SK-MEL-5 melanoma) [µM] | TGI (LOX IMVI melanoma) [µM] | GI50 (A498 renal) [µM] | TGI (A498 renal) [µM] | GI50 (SNB-75 CNS) [µM] | GI50 (SF-539 CNS) [µM] | GI50 (SN12C renal) [µM] | GI50 (LOX IMVI melanoma) [µM] | GI50 (MALME-3M melanoma) [µM] | GI50 (HT29 colon) [µM] | GI50 (A549 NSCLC) [µM] | GI50 (SF-295 CNS) [µM] | GI50 (SK-MEL-5 melanoma) [µM] |
| --- | --- | --- | --- | --- | --- | --- | --- | --- | --- | --- | --- | --- | --- | --- | --- | --- | --- | --- | --- | --- |
| Clc1cc(Cl)cc(C2SCc3nc4ccccc4n32)c1 (centres undefined) | > 100 | 23.9 | 29.9 | 62.6 | 25.2 | 76.1 | 29.3 | 25.7 | – | – | – | – | – | – | – | – | – | – | – | – |
| O=C1C2c3[nH]c4ccccc4c3C3CCC(c4ccccc4)CC3C2C(=O)N1c1ccccc1 (centres undefined) | 55.9 | > 100 | > 100 | > 100 | > 100 | > 100 | > 100 | > 100 | > 100 | – | – | – | – | – | – | – | – | – | – | – |
| CCCCCCCCCCCCCCCCCc1cc(Cl)nc(Cl)n1 | > 100 | > 100 | > 100 | > 100 | > 100 | > 100 | > 100 | > 100 | > 100 | – | – | – | – | – | – | – | – | – | – | – |
| COc1ccc2c(c1)O/C(=C\c1ccc([N+](=O)[O-])o1)C2=O | 8.26 | 4.14 | > 100 | 5.77 | 1.92 | 8.04 | 11.6 | 3.08 | 2.96 | 1.74 | 4.54 | 2.24 | 1.6 | 2.45 | 1.14 | 2.45 | 0.452 | 2.43 | 2.47 | 1.56 |
| CCCCN1C(=O)C2c3[nH]c4ccccc4c3C3CCCCC3C2C1=O (mixture of isomers) | 21.9 | 28.6 | > 100 | – | > 100 | 45 | 23.7 | 90.3 | 24.1 | – | – | – | – | – | – | – | – | – | – | – |
| CCN(CC)c1ccc(CNc2cc(C)nc3ccc(OC)cc23)cc1 | 5.05 | 4.36 | 20.6 | 3.43 | 3.59 | 21.2 | 3.89 | 2.72 | 3.47 | 2.24 | 10.1 | 2.04 | 2.22 | 5.33 | 1.67 | 1.8 | 0.955 | 6.41 | 1.78 | 1.3 |
| O=C(NCCN1CCOCC1)Nc1nc2ccc(Sc3nnc4ccc(-c5ccc(F)cc5)nn34)cc2s1 | – | > 100 | > 100 | > 21.1 | > 24.2 | > 100 | 1.95 | > 28.6 | > 42.3 | 80.6 | > 100 | – | 2.94 | – | – | 3.12 | 2.79 | > 100 | 0.101 | – |
| CC[C@]12C=CCN3CC[C@@]4(c5ccc(OC)cc5N(C)[C@H]4[C@@](O)(C(=O)OC)[C@@H]1OC(=O)CCCC[P+](c1ccccc1)(c1ccccc1)c1ccccc1)[C@@H]32 | 2.08 | 12.1 | 8.26 | 1.35 | 5.48 | 10.2 | 9.04 | 3.08 | 9.03 | 2.84 | 10.4 | 0.357 | 0.993 | 0.414 | 1.11 | 0.319 | 0.441 | 1.86 | 2.65 | 1.69 |
| COC1=CC(=O)c2c(O)c3c(c(O)c2C1=O)OC1(Oc2c(cc4cc(C)oc(=O)c4c2O)CC1O)C3O (centres undefined) | > 100 | > 100 | 49.3 | 10.3 | > 100 | > 100 | > 100 | 95 | > 100 | – | > 100 | – | – | – | – | – | – | – | – | – |
| CCCCCCCCCCCCCCCCSS(C)(=O)=O | 32.6 | > 56.4 | > 69.5 | 24.9 | > 69.6 | > 80.3 | > 100 | 59 | 19.3 | – | > 97.2 | – | – | – | – | – | – | – | – | – |
| O=C1/C(=N/N=C(c2ccccc2)c2ccccc2)c2ccccc2-c2ccccc21 | > 100 | > 100 | > 100 | > 100 | > 100 | > 100 | > 100 | > 100 | > 100 | – | – | – | – | – | – | – | – | – | – | – |
| N#CC1=C(c2ccccc2)NN(Cc2ccccc2)C(c2ccc(Cl)cc2)CC1=O (centres undefined) | 46 | – | – | – | 38.7 | 62.3 | > 100 | > 100 | 41.8 | – | > 100 | – | – | – | – | – | – | – | – | – |
| C=CCNC(=O)ON1C(=O)CCC1=O | > 100 | > 100 | > 100 | > 100 | > 100 | > 100 | > 100 | – | > 100 | – | > 100 | – | – | – | – | – | – | – | – | – |
| CN(C(=N)c1ccccc1)c1ccccc1 | > 100 | > 100 | > 100 | – | > 100 | > 100 | > 100 | > 100 | > 100 | – | – | – | – | – | – | – | – | – | – | – |
| CC(=O)CC(=O)ON(C)C(C)=O | > 100 | > 100 | > 100 | > 100 | > 100 | > 100 | > 100 | > 100 | > 100 | – | – | – | – | – | – | – | – | – | – | – |
| Clc1cc2nc[nH]c2cc1Cl | 83.9 | > 100 | > 100 | > 100 | > 100 | > 100 | > 100 | – | > 100 | – | > 100 | – | – | – | – | – | – | – | – | – |
| COC(=O)c1ccc(CS(=O)(=O)c2ccccc2)cc1 | > 100 | > 100 | > 100 | > 100 | > 100 | > 100 | > 100 | > 100 | > 100 | – | – | – | – | – | – | – | – | – | – | – |
| O=c1ncc(I)c[nH]1 | > 100 | > 100 | > 100 | > 100 | – | > 100 | > 100 | > 100 | > 100 | > 100 | > 100 | > 100 | > 100 | > 100 | > 100 | > 100 | – | > 100 | > 100 | > 100 |
| COc1ccc(-c2c(-c3cc4c(c(OC)c3OC)OCO4)noc2N)cc1 | 0.489 | – | > 100 | – | 3.15 | > 100 | > 100 | > 69.4 | > 100 | 0.374 | > 100 | 0.138 | 0.32 | 0.792 | 0.48 | – | 0.279 | 0.544 | 0.275 | 0.311 |

Reference: PubChem BioAssay (NCI)
